Reference: patent publication US9907776B2 (priority 2013, dated 2018)

How the values were obtained:
[1] = test system: PTZ (Pentylenetetrazol) induced clonic seizure; test: animal or person; type: in vivo, Rats; SD; settings: for PTZ test (ip) Protection % (Rats): rat, in vivo
[2] = test system: PTZ (Pentylenetetrazol) induced clonic seizure; set-up: species or system Mouse; ICR; settings: mouse, in vivo
[3] = test system: corneally kindled seizures; test: animal or person; type: in vivo, Sprague-Dawley rats; settings: Rattus norvegicus, po
[4] = test system: hippocampal kindled seizures; test: animal or person; type: in vivo, Sprague-Dawley rats; settings: Rattus norvegicus, ip, read-out: HK (ip) ED50
[5] = read-out: CK(po) Protection % (Rats)

Structure (SMILES): CNC(=O)O[C@@H](C)[C@@H](O)c1ccccc1Cl [Example 15, 1-(2-chlorophenyl)-(S)-1-hydroxypropyl-(S)-2-N-methylcarbamate]
- PTZ test (ip) Protection % (Rats) [1]: ^b25 (33.3%)

Structure (SMILES): CC(C)NC(=O)OC(C)C(O)c1ccccc1Cl (racemic) [Example 31, 1-(2-chlorophenyl)-1-hydroxypropyl-2-N-isopropylcarbamate]
- PTZ test (ip) Protection % (Mice) [2]: ^a20.4 (83.3%)

Structure (SMILES): CCCC[C@H](OC(N)=O)[C@@H](O)c1ccccc1Cl [Example 12, 1-(2-chlorophenyl)-(S)-1-hydroxyhexyl-(S)-2-carbamate]
- PTZ test (ip) Protection % (Mice) [2]: ^a20.4 (33.3%)

Structure (SMILES): C[C@@H](OC(N)=O)[C@H](O)c1ccccc1Cl [Example 2, 1-(2-chlorophenyl)-(R)-1-hydroxypropyl-(R)-2-carbamate]
- responders at 20 mg/kg [3, 5]: 16.7%

Structure (SMILES): CCCCC(OC(N)=O)C(O)c1ccccc1Cl (racemic) [Example 14, 1-(2-chlorophenyl)-1-hydroxyhexyl-2-carbamate]
- PTZ test (ip) Protection % (Mice) [2]: ^a20.4 (16.7%)

Structure (SMILES): CCCNC(=O)OC(C)C(O)c1ccccc1Cl (racemic) [Example 30, 1-(2-chlorophenyl)-1-hydroxypropyl-2-N-propylcarbamate]
- PTZ test (ip) Protection % (Mice) [2]: ^a20.4 (33.3%)

Structure (SMILES): CCCC[C@H](OC(N)=O)[C@@H](O)c1c(Cl)cccc1Cl [Example 44, 1-(2,6-dichlorophenyl)-(S)-1-hydroxyhexyl-(S)-2-carbamate]
- PTZ test (ip) Protection % (Mice) [2]: ^a20.4 (33.3%)

Structure (SMILES): C[C@H](OC(=O)NC1CC1)[C@@H](O)c1ccccc1Cl [Example 18, 1-(2-chlorophenyl)-(S)-1-hydroxypropyl-(R)-2-N-cyclopropylcarbamate]
- PTZ test (ip) Protection % (Rats) [1]: ^b30 (16.7%)

Structure (SMILES): CCC(OC(N)=O)C(O)c1ccccc1Cl (racemic) [Example 8, 1-(2-chlorophenyl)-1-hydroxybutyl-2-carbamate]
- PTZ test (ip) Protection % (Mice) [2]: ^a20.4 (50%)^

Structure (SMILES): CC[C@H](OC(N)=O)[C@@H](O)c1ccccc1Cl [Example 6, 1-(2-chlorophenyl)-(S)-1-hydroxybutyl-(S)-2-carbamate]
- PTZ test (ip) Protection % (Rats) [1]: ^b30 (50%)^
- responders at 10 mg/kg [3, 5]: 33.3%

Structure (SMILES): CCCC[C@@H](OC(N)=O)[C@H](O)c1ccccc1Cl [Example 13, 1-(2-chlorophenyl)-(R)-1-hydroxyhexyl-(R)-2-carbamate]
- PTZ test (ip) Protection % (Mice) [2]: ^a20.4 (50%)^

Structure (SMILES): CCCC[C@H](OC(N)=O)[C@@H](O)c1ccc(Cl)cc1Cl [Example 43, 1-(2,4-dichlorophenyl)-(S)-1-hydroxyhexyl-(S)-2-carbamate]
- PTZ test (ip) Protection % (Rats) [1]: ^b25 (33.3%)

Structure (SMILES): C[C@@H](OC(N)=O)[C@@H](O)c1ccccc1Cl [Example 4, 1-(2-chlorophenyl)-(S)-1-hydroxypropyl-(R)-2-carbamate]
- responders at 30 mg/kg [3, 5]: 100%

Structure (SMILES): CC[C@H](OC(N)=O)[C@@H](O)c1ccc(Cl)cc1Cl [Example 39, 1-(2,4-dichlorophenyl)-(S)-1-hydroxybutyl-(S)-2-carbamate]
- responders at 25 mg/kg [3, 5]: 100%

Structure (SMILES): CC(OC(=O)NC1CC1)C(O)c1ccccc1Cl (racemic) [Example 32, 1-(2-chlorophenyl)-1-hydroxypropyl-2-N-cyclopropylcarbamate]
- PTZ test (ip) Protection % (Mice) [2]: ^a20.4 (16.7%)

Structure (SMILES): CNC(=O)OC(C)C(O)c1ccccc1Cl (racemic) [Example 29, 1-(2-chlorophenyl)-1-hydroxypropyl-2-N-methylcarbamate]
- PTZ test (ip) Protection % (Mice) [2]: ^a20.4 (33.3%)

Structure (SMILES): C[C@H](OC(N)=O)[C@@H](O)c1ccccc1F [Example 63, 1-(2-fluorophenyl)-(S)-1-hydroxypropyl-(S)-2-carbamate]
- PTZ test (ip) Protection % (Mice) [2]: ^a20.4 (50%)^
- responders at 20 mg/kg [3, 5]: 100%

Structure (SMILES): C[C@@H](OC(N)=O)[C@H](O)c1c(Cl)cccc1Cl [Example 46, 1-(2,6-dichlorophenyl)-(R)-1-hydroxypropyl-(R)-2-carbamate]
- PTZ test (ip) Protection % (Mice) [2]: ^a20.4 (50%)^
- responders at 20 mg/kg [3, 5]: 50%

Structure (SMILES): C[C@H](OC(N)=O)[C@@H](O)c1ccc(Cl)cc1Cl [Example 36, 1-(2,4-dichlorophenyl)-(S)-1-hydroxypropyl-(S)-2-carbamate]
- PTZ test (ip) Protection % (Mice) [2]: ^a20.4 (33.3%)
- responders at 30 mg/kg [3, 5]: 50%

Structure (SMILES): CC[C@H](OC(N)=O)[C@@H](O)c1c(Cl)cccc1Cl [Example 40, 1-(2,6-dichlorophenyl)-(S)-1-hydroxybutyl-(S)-2-carbamate]
- PTZ test (ip) Protection % (Mice) [2]: ^a20.4 (33.3%)

Structure (SMILES): CC(OC(N)=O)C(O)c1ccccc1Cl (racemic) [Example 3, 1-(2-chlorophenyl)-1-hydroxypropyl-2-carbamate]
- ED50 ([1]; Rattus norvegicus, ip, read-out: PTZ test (ip) Rats ED50): 81.9 mg/kg
- responders at 10 mg/kg [3, 5]: 50%

Structure (SMILES): C[C@H](OC(N)=O)[C@H](O)c1ccccc1Cl [Example 5, 1-(2-chlorophenyl)-(R)-1-hydroxypropyl-(S)-2-carbamate]
- responders at 30 mg/kg [3, 5]: 50%

Structure (SMILES): CC(C)[C@H](OC(N)=O)[C@@H](O)c1c(Cl)cccc1Cl [Example 42, 1-(2,6-dichlorophenyl)-(S)-1-hydroxy-3-methyl-butyl-(S)-2-carbamate]
- PTZ test (ip) Protection % (Mice) [2]: ^a20.4 (50%)^

Structure (SMILES): CC[C@H](OC(N)=O)[C@@H](O)c1ccccc1I [Example 67, 1-(2-iodophenyl)-(S)-1-hydroxybutyl-(S)-2-carbamate]
- PTZ test (ip) Protection % (Rats) [1]: ^b30 (33.3%)
- responders at 30 mg/kg [3, 5]: 100%

Structure (SMILES): C[C@@H](OC(N)=O)[C@H](O)c1ccc(Cl)cc1Cl [Example 45, 1-(2,4-dichlorophenyl)-(R)-1-hydroxypropyl-(R)-2-carbamate]
- PTZ test (ip) Protection % (Mice) [2]: ^a20.4 (16.7%)
- PTZ test (ip) Protection % (Rats) [1]: ^b50 (16.7%)

Structure (SMILES): CC(C)[C@H](OC(N)=O)[C@@H](O)c1ccccc1Cl [Example 9, 1-(2-chlorophenyl)-(S)-1-hydroxy-3-methyl-butyl-(S)-2-carbamate]
- PTZ test (ip) Protection % (Mice) [2]: ^a20.4 (33.3%)
- responders at 30 mg/kg [3, 5]: 16.7%

Structure (SMILES): C[C@@H](OC(=O)NC1CC1)[C@H](O)c1ccccc1Cl [Example 25, 1-(2-chlorophenyl)-(R)-1-hydroxypropyl-(R)-2-N-cyclopropylcarbamate]
- PTZ test (ip) Protection % (Mice) [2]: ^a20.4 (66.7%)

Structure (SMILES): C[C@H](OC(N)=O)[C@@H](O)c1c(Cl)cccc1Cl [Example 37, 1-(2,6-dichlorophenyl)-(S)-1-hydroxypropyl-(S)-2-carbamate]
- PTZ test (ip) Protection % (Rats) [1]: ^b30 (50%)^
- responders at 10 mg/kg [3, 5]: 33.3%

Structure (SMILES): C[C@H](OC(N)=O)[C@@H](O)c1ccccc1I [Example 65, 1-(2-iodophenyl)-(S)-1-hydroxypropyl-(S)-2-carbamate]
- PTZ test (ip) Protection % (Mice) [2]: ^a20.4 (100%)
- responders at 2.8 mg/kg [3, 5]: 33.3%

Structure (SMILES): C[C@H](OC(N)=O)[C@@H](O)c1ccccc1Cl [Example 1, 1-(2-chlorophenyl)-(S)-1-hydroxypropyl-(S)-2-carbamate]
- ED50 [4]: 17.6 mg/kg
- ED50 ([3]; read-out: CK(po) ED50): 2.8 mg/kg

Structure (SMILES): CCCNC(=O)O[C@@H](C)[C@@H](O)c1ccccc1Cl [Example 16, 1-(2-chlorophenyl)-(S)-1-hydroxypropyl-(S)-2-N-propylcarbamate]
- PTZ test (ip) Protection % (Rats) [1]: ^b30 (33.3%)

Structure (SMILES): C[C@H](OC(N)=O)[C@@H](O)c1cccc(Cl)c1Cl [Example 38, 1-(2,3-dichlorophenyl)-(S)-1-hydroxypropyl-(S)-2-carbamate]
- PTZ test (ip) Protection % (Mice) [2]: ^a20.4 (50%)^
- responders at 30 mg/kg [3, 5]: 50%

Structure (SMILES): CCCNC(=O)O[C@H](C)[C@H](O)c1ccccc1Cl [Example 23, 1-(2-chlorophenyl)-(R)-1-hydroxypropyl-(R)-2-N-propylcarbamate]
- PTZ test (ip) Protection % (Mice) [2]: ^a20.4 (50%)^
